Data on three molecules can be found in patent EP0108147B1, “Use of a protoberberine alkaloid and composition containing same” (MAROKO, Peter R., priority 1982, dated 1983).

Holding throughout (assay type): in vivo
Series [1] deals with dogs. In words: Myocardial oxygen consumption (MV02) and epicardial ST segment elevation experiments. The conditions noted are these: for myocardial oxygen consumption and myocardial injury: dogs, varying dosages. From the text:
These changes were due to lower. myocardial oxygen consumption during the occlusion with berberine treatment. […] This is quite an advanageous therapeutic combination of properties which further distinguish the compounds used in the invention from the conventional drugs.

Series [2] concerns anesthetized closed chest dogs. In words: Association of ouabain and berberine on contractility (LV dP/dt), constant systolic pressure. To be noted: for increase of LV dP/dt, of the initial LV dP/dt: berberine 0.7 mg/Kg/min after ouabain; for increases in dP/dt: only berberine 0.7 mg/Kg/min without digitalis. Here is the method: In anesthetized closed chest dogs the systolic arterial pressure was maintained constant with a reservoir full of heparinized blood (as in protocol "M" and "Z" described above) and a "pigtail" and Millar catheter were introduced into the left ventricular cavity (as in protocol "Z" and "HV", described above). All data was recorded on 8 channel polygraph (Gould Instruments) with a paper speed of 200 mm/s when necessary and at 2 mm/s constantly.

Series [3] relates to closed-chest dogs. The experiment in a line: Protocol TE: electrophysiologic properties in closed-chest dogs. To be noted: for result when substituted in the electrophysiologic experiments: dog, in vivo. As for the experimental part:
Experiments were carried out to analyze the electrophysiologic properties of berberine (portocol TE). In this protocol closed-chest dogs were anesthetized with intravenous pentobarbital (30 mg/Kg). Electrode catheters were placed, under fluoroscopy, in the high right atrium, right venticle, and in the aorta near the non-coronary aortic cusp to record His bundle potential. In addition aortic pressure (Statham gauge) and surface ECG were obtained. All parameters were recorded on an Electronic for Medicine polygraph (Model DR 8), with a paper speed of 100 mm/sec. The recordings were obtained before berberine treatment and after five successive five minute infusions of 0.2 mg/Kg/min of berberine in each one of the dogs. At each one of these time intervals recordings were done with the "spontaneous" normal sinus rhythm and with atrial and ventricular extrastimuli were given during the normal sinus as well as during the pacing phases of the experiment to determine the refractory period of the artria, atrio-ventricular node and of the His-Purkinje system and ventricle. Moreover, sinus node recovery time was measured.

The test system of series [4] is Mongrel dogs. In words: Protocol Z: continuous 35 minute infusion in anesthetized open-chest dogs, constant left ventricular pressure. The conditions noted are these: for reduction of calculated peripheral resistance: 0.2 mg/Kg/min. Here is the method: Mongrel dogs weighing between 15 and 25 kg were anesthetized with intravenous sodium thiamylal (20 mg/kg initially with additional doses given as needed). The dogs were intubated endotracheally, and respiration was maintained by a Harvard respirator. The chest was then opened in the fourth left intercostal space and the heart suspended temporarily in a pericardial cradle.
Aortic pressures were recorded through a polyethylene cannula introduced through the carotid artery (Statham P23 Db pressure transducer) and electrocardiogram (lead aVF) were recorded throughout the experiment on a polygraph (Gould Instruments). Another polyethylene cannula was placed in the left atrium for measurement of atrial pressure (Statham P23 Db pressure transducer). An electromagnetic flowmeter (Biotonix Laboratories) was placed around the ascending aorta and the aortic flow was recorded on a polygraph. Two catheters were inserted into the left ventricle through a femoral artery.
The first ("pigtail") served as a reference, while the second (Millar microtip transducer catheter) was connected through a Millar transducer (Millar Instruments, Houston, Texas) to the polygraph, where both left ventricular pressure curves were recorded simultaneously. The left ventricular end diastolic pressure was recorded separately through a Millar catheter. The first derivative of the left ventricular pressure (dP/dt) was obtained by electronic differentiation of the left ventricular pulse recorded through the Millar catheter.
A reservoir of blood was connected with the femoral artery in order to maintain constant left ventricular pressure during the experiment. In this protocol, similarly to protocol M, systemic arterial pressure was maintained constant in order to have accurate measurements of dP/dt which represent well left ventricular contractility when the systolic pressure is maintained constant. However, calculated total peripheral resistance will be higher (an underestimation of the fall). After stabilization of hemodynamics as reflected by continuously monitored parameters for 15 minutes, the substances to be studied were infused intravenously using a Harvard infusion pump. Registrations were made every 5 minutes at a paper speed of 200 mm/second, while all the parameters were recorded constantly at a speed of 2 mm/second. The dogs were randomly assigned to several groups: • Group a) Control - in these dogs a solution of 5% dextrose in water was infused in the same quantity as in the berberine treated animals (n = 7).
In all berberine, berberrubine coreximine and tetrahydropalmatine groiups the compounds were infused at constant rate for 35 minutes and the data analyzed at 5 minute intervals. • Group b) Berberine 0.7 mg/Kg/min (n = 10). • Group c) Berberine 0.2 mg/Kg/min (n = 7). • Group d) Berberine 0.02 mg/Kg/min (n = 7). • Group e) Berberrubine 0.2 mg/Kg/min (n = 7). • Group f) Tetrahydropalmatine 0.2 mg/Kg/min (n = 4). • Group g) Coreximine 0.2 mg/Kg/min (n = 8).
Therefore, group b, c and d were used to analyze the various effects of continuous infusion of berberine and its dose response and groups e and f and g used to examine the effects of these three other proberberines. Moreover, their effects were compared to the berberine treated dogs with the same dose (i.e. Group c).

[5] abbreviates: five successive five minute infusions of 0.2 mg/Kg/min.
The mark [6] stands for this setting: 0.7 mg/Kg/min, after 35 minutes.
[7] abbreviates: 0.7 mg/Kg/min, over the control.

For the molecule `COc1ccc2cc3[n+](cc2c1OC)CCc1cc2c(cc1-3)OCO2` [berberine], in series [1] (after coronary artery occlusion), the “epicardial ST segment elevations” value is “did not change them”. Further, in series [1] (consecutive occlusions, 0.2 mg/kg/min, vs control occlusion, pilot experiments), the “myocardial injury (epicardial ST segment elevations)” value is “less myocardial injury”. Moreover, the myocardial oxygen consumption entry in series [1] (dogs with acute left ventricular failure, effect greater than that of ouabain) is listed as “significantly reduced”. The myocardial oxygen consumption result in series [1] (dogs without coronary artery occlusion) is “reduction in myocardial oxygen consumption”. The “mycardial oxygen consumption (MV02)” value in series [1] (non-failing heart, 0.02 mg/kg.min) was “did not change”. Moreover, in series [2] (5 minutes), the “increase of LV dP/dt, of the initial LV dP/dt” value (from here on “increase of LV dP/dt”) amounted to 87±10% and the “increases in dP/dt” value amounted to 30±4%. In series [2] (10 minutes), the “increase of LV dP/dt” value came to 82±13% and the “increases in dP/dt” value was found to be 36±3%. Moreover, in series [2] (15 minutes), the “increase of LV dP/dt” value turned out to be 87±13% and the “increases in dP/dt” value stood at 39±3%. In series [2] (20 minutes), the “increase of LV dP/dt” value is reported as 95±16% and the “increases in dP/dt” value was determined as 42±5%. Also, in series [2] (25 minutes), the “increase of LV dP/dt” value stood at 96±16% and the “increases in dP/dt” value stood at 39±5%. Further, in series [2] (30 minutes), the “increase of LV dP/dt” value is 94±14% and the “increases in dP/dt” value was found to be 40±7%. In addition, in series [2] (dog, in vivo), the “combined effect with ouabain on contractility” value is “more than additive but synergistic”. Besides, in series [3] (setting [5]), the “A-H, H-V and QRS intervals” value is on record as “did not change”; the Sinus node recovery entry is reported as “did not change”; the artrial refractory period entry is reported as “did not change”; the “change of QTc” value turned out to be 13%. In addition, in series [3] (setting [5]), the “decrease of heart rate” value came to 8% and the “increase of ventricular effective refractory period” value was 11%. Besides, the “increase in dP/dt” value in series [4] (0.002 mg/Kg/min, one additional dog) worked out at 20%. Moreover, the “increase of pulse pressure” value in series [4] (0.02 mg/Kg/min (group d)) is 18.5 ± 10%. In series [4] (0.02 mg/Kg/min, after 35 minutes), the “increase in dP/dt” value amounted to 35.8 ± 8.2%. Further, the “reduction of calculated peripheral resistance” value in series [4] was “over 30%”. Further, in series [4] (0.2 mg/Kg/min (Table XIII)), the “Stroke volume (SV)” value is listed as “increased significantly”; the “fall in diastolic arterial pressure (widening in the pulse-pressure, PP) relative to the other three drugs” value is on record as “more than twice as large”; the “fall of heart rate (HR)” value is reported as 16-17%. The “increase of aortic flow (stroke volume)” value in series [4] (0.2 mg/Kg/min (group c)) stood at 53.6 ± 17.7%. In addition, in series [4] (0.7 mg/Kg/min), the “reduction of heart rate” value amounted to 32 ± 3%. Moreover, the “increase in LV dP/dt” value in series [4] (0.7 mg/Kg/min, after 5 minutes) worked out at 35%. Further, in series [4] (setting [6]), the “decrease of calculated total peripheral resistance” value was 46.8 ± 9.3% and the “increase of aortic pulse-pressure” value stood at 125 ± 19%. In series [4] (0.7 mg/Kg/min, after 35 minutes, ascending aorta), the “increase of peak aortic blood flow” value is given as 73%. Further, in series [4] (0.7 mg/Kg/min, at 35 minutes), the “increase in LV dP/dt” value was 43.2 ± 7.0%. Besides, in series [4] (setting [7]), the “increase in cardiac output” value is on record as 75 ± 29% and the “increase in stroke volume (calculated by planimetry)” value was 169 ± 36%. In addition, the “fall in heart rate” value in series [4] (at the smaller doses) is given as “no significant fall in heart rate”. In addition, the QTc interval entry in series [4] (dog, in vivo) is listed as “overall increase”. In addition, the P-R interval result in series [4] (i.v. for 60' (0.7 mg/Kg/min), total 42 mg/Kg) is “does not increase the P-R interval”. Further, in series [4] (over the period of i.v. administration (Fig. XVII)), the “QRS complex or interval” value is listed as “not increased”. Moreover, in series [4] (when dP/dt is increased by 43%), the “average increase of QTc” value turned out to be 16%.
`COc1ccc2cc3[n+](cc2c1O)CCc1cc2c(cc1-3)OCO2` [berberrubine]: in series [1], the “myocardial oxygen consumption and myocardial injury” value is “reduction on myocardial oxygen consumption and less myocardial injury than the control”. For the same molecule, the “result in the association with ouabain” value in series [2] (dog, in vivo) is listed as “perform in the same manner”. The “result when substituted in the electrophysiologic experiments” value in series [3] is on record as “likewise”. Also, the “reduction of calculated peripheral resistance” value in series [4] is reported as “did not show that property to that pronounced degree”. For the same molecule, in series [4] (0.2 mg/Kg/min (Table XIII)), the “Stroke volume (SV)” value was “just slightly (and not statistically significantly)” and the “fall of heart rate (HR)” value was 16-17%.
In the case of `COc1cc2c(cc1O)C[C@H]1c3cc(O)c(OC)cc3CCN1C2` [coreximine], in series [1], the “myocardial oxygen consumption and myocardial injury” value was “reduction on myocardial oxygen consumption and less myocardial injury than the control”. Besides, the “result in the association with ouabain” value in series [2] (dog, in vivo) is “perform in the same manner”. In addition, the “result when substituted in the electrophysiologic experiments” value in series [3] is on record as “comparable results are shown”. Further, the “reduction of calculated peripheral resistance” value in series [4] is recorded as “did not show that property to that pronounced degree”. Moreover, in series [4] (0.2 mg/Kg/min (Table XIII)), the “Stroke volume (SV)” value is on record as “increased significantly” and the “fall of heart rate (HR)” value is on record as 16-17%.
